# Results as given in patent US11691969B2, “Pyridazinones as PARP7 inhibtors” (Ribon Therapeutics, Inc., priority 2019, dated 2023).
# pIC50: −log10 of the molar value.
# Target: PARP7 (Homo sapiens (Human), UniProt Q7Z3E1)
# Test: TR-FRET assay: displacement of biotinylated Probe A from the TIPARP active site (Enzymatic Assay for Inhibition of PARP7)
# Assay type: binding
# Details: TIPARP 6 nM, Probe A 2 nM, 25° C.
# Procedure: Example A. Enzymatic Assay for Inhibition of PARP7
# Displacement of Probe A, a biotinylated probe binding to the TIPARP active site, was measured using a time-resolved fluorescence energy transfer (TR-FRET) assay. 20 nL of a dose response curve of each test compound was spotted in black 384-well polystyrene proxiplates (Perkin Elmer) using a Mosquito (TTP Labtech). Reactions were performed in a 8 μl volume by adding 6 μL of TIPARP and Probe A in assay buffer (20 mM HEPES pH=8, 100 mM NaCl, 0.1% bovine serum albumin, 2 mM DTT and 0.002% Tween20), incubating with test compound at 25° C. for 30 min, then adding 2 μL of ULight-anti 6×His and LANCE Eu-W1024 labeled streptavidin (Perkin Elmer). The final concentrations of TIPARP and Probe A were 6 nM and 2 nM, respectively. The final concentration of ULight-anti 6×His and LANCE Eu-W1024 labeled streptavidin were 4 nM and 0.25 nM, respectively. Reactions were incubated at 25° C. for an additional 30 min, then read on an Envision platereader equipped with a LANCE/DELFIA top mirror (Perkin Elmer) using excitation of 320 nm and emission of 615 nm and […] with a […]. The ratio of the 665/615 nm emission were calculated for each well to determine the amount of complex of TIPARP and Probe Ain each well. Control wells containing a negative control of 0.25% DMSO vehicle or a positive control of 100 μM 5-(5-(piperidin-4-yloxy)isoindolin-2-yl)-4-(trifluoromethyl)pyridazin-3(2H)-one were used to calculate the % inhibition as described below:
# [formula] where TRFcmpd is the TR-FRET ratio from the compound treated well, TRFmin is the TR-FRET ratio from the 5-(5-(piperidin-4-yloxy)isoindolin-2-yl)-4-(trifluoromethyl)pyridazin-3(2H)-one—treated positive control well and TRFmax is the TR-FRET ratio from the DMSO-treated negative control well. The % inhibition values were plotted as a function of compound concentration and the following 4-parameter fit was applied to derive the IC50 values:
# [formula] where top and bottom are normally allowed to float, but may be fixed at 100 or 0 respectively in a 3-parameter fit. The Hill Coefficient is normally allowed to float but may also be fixed at 1 in a 3-parameter fit. Y is the % inhibition and X is the compound concentration. Synthesis of Probe A
# Chain of PARP7 (Q7Z3E1 whole entry): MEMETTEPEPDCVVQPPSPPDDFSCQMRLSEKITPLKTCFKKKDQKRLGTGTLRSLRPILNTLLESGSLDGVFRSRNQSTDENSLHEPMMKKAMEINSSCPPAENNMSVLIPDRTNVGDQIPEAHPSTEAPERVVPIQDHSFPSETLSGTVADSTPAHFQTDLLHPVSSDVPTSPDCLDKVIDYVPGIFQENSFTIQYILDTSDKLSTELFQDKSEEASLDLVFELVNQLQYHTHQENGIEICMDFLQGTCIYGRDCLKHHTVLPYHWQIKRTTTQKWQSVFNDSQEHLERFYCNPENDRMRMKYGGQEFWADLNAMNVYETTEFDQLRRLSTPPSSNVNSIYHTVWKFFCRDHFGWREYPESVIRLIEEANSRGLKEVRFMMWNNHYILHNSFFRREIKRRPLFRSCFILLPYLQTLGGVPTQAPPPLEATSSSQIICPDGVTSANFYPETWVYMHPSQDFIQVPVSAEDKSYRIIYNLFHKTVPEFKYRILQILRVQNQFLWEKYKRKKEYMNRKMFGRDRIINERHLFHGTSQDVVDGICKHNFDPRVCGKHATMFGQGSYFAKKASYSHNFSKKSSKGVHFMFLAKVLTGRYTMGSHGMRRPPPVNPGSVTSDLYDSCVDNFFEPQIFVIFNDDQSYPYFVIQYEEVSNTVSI
row,pIC50,SMILES
1,> 7.00,"C[C@@H](CO[C@@H]1CCN([C@@H]2CCN(c3ccc(C#N)cn3)CC2(F)F)C1=O)Nc1cn[nH]c(=O)c1C(F)(F)F (single isomer, unassigned) [Example 40A]"
2,> 7.00,"C[C@@H](COC1CCN(C2CCN(c3ccc(C#N)cn3)CC2)C1=O)Oc1cn[nH]c(=O)c1C(F)(F)F (stereo partly drawn) [Example 30, 6-(4-(2-oxo-3-((S)-2-((6-oxo-5-(trifluoromethyl)-1,6-dihydropyridazin-4-yl)oxy)propoxy)pyrrolidin-1-yl)piperidin-1-yl)nicotinonitrile]"
3,> 7.00,"C[C@@H](CO[C@@H]1CCN([C@H]2CCN(c3ccc(C#N)cn3)CC2(F)F)C1=O)Nc1cn[nH]c(=O)c1C(F)(F)F (single isomer, unassigned) [Example 40B]"
4,> 7.00,"COC[C@@H](CO[C@@H]1CCN(C2CCN(c3ncc(C(F)(F)F)cn3)CC2)C1=O)Oc1cn[nH]c(=O)c1Br [Example 56B, 4-Bromo-5-(((S)-1-methoxy-3-(((R)-2-oxo-1-(1-(5-(trifluoromethyl)pyrimidin-2-yl)piperidin-4-yl)pyrrolidin-3-yl)oxy)propan-2-yl)oxy)pyridazin-3(2H)-one]"
5,> 7.00,"CC(=O)NC[C@@H](CO[C@@H]1CCN(C2CCN(c3ncc(C(F)(F)F)cn3)CC2)C1=O)Nc1cn[nH]c(=O)c1C(F)(F)F [Example 66, N—((S)-3-(((R)-2-oxo-1-(1-(5-(trifluoromethyl)pyrimidin-2-yl)piperidin-4-yl)pyrrolidin-3-yl)oxy)-2-((6-oxo-5-(trifluoromethyl)-1,6-dihydropyridazin-4-yl)amino)propyl)acetamide]"
6,> 7.00,"Cc1cnc(N2CCC(N3CC[C@@H](OC[C@H](C)Nc4cn[nH]c(=O)c4C(F)(F)F)C3=O)CC2)nc1 [Example 44, 5-(((S)-1-(((R)-1-(1-(5-methylpyrimidin-2-yl)piperidin-4-yl)-2-oxopyrrolidin-3-yl)oxy)propan-2-yl)amino)-4-(trifluoromethyl)pyridazin-3(2H)-one]"
7,> 7.00,"C[C@@H](CO[C@@H]1CCN([C@@H]2CCN(c3ncc(C(F)(F)F)cn3)C[C@@H]2O)C1=O)Nc1cn[nH]c(=O)c1C(F)(F)F [Example 59, 5-(((S)-1-(((R)-1-((3S,4R)-3-hydroxy-1-(5-(trifluoromethyl)pyrimidin-2-yl)piperidin-4-yl)-2-oxopyrrolidin-3-yl)oxy)propan-2-yl)amino)-4-(trifluoromethyl)pyridazin-3(2H)-one]"
8,> 7.00,C[C@@H](CO[C@H]1CCN(C2CCN(c3ccc(C#N)cn3)CC2)C1=O)Oc1cn[nH]c(=O)c1Br [Example 48B]

# Further lines, the molecule ahead of its results:
row,SMILES,pIC50
1,"C[C@@H](CN[C@H]1CCN(C2CCN(c3ncc(C(F)(F)F)cn3)CC2)C1=O)Nc1cn[nH]c(=O)c1C(F)(F)F (single isomer, unassigned) [Example 26A]",≤ 6.00
2,"C[C@@H](CO[C@H]1CCN(C2CCN(c3cnc(C(F)(F)F)cn3)CC2)C1=O)Oc1cn[nH]c(=O)c1C(F)(F)F [Example 31A, 5-(((S)-1-(((S)-2-oxo-1-(1-(5-(trifluoromethyl)pyrazin-2-yl)piperidin-4-yl)pyrrolidin-3-yl)oxy)propan-2-yl)oxy)-4-(trifluoromethyl)pyridazin-3(2H)-one]",> 7.00
3,"C[C@@H](CO[C@@H]1CCN(C2CCN(c3ccc(C#N)cn3)CC2)C1=O)Nc1cn[nH]c(=O)c1C(F)(F)F [Example 14B, 6-(4-((R)-2-oxo-3-((S)-2-((6-oxo-5-(trifluoromethyl)-1,6-dihydropyridazin-4-yl)amino)propoxy)pyrrolidin-1-yl)piperidin-1-yl)nicotinonitrile]",> 7.00
4,"C[C@@H](CO[C@@H]1CCN(C2CCN(c3ncc(C(F)(F)F)cn3)CC2C#N)C1=O)Nc1cn[nH]c(=O)c1C(F)(F)F (stereo partly drawn) [Example 69, 4-((R)-2-oxo-3-((S)-2-((6-oxo-5-(trifluoromethyl)-1,6-dihydropyridazin-4-yl)amino)propoxy)pyrrolidin-1-yl)-1-(5-(trifluoromethyl)pyrimidin-2-yl)piperidine-3-carbonitrile]",> 7.00
5,"COC[C@@H](CO[C@@H]1CCN(C2CCN(c3ncc(C#N)s3)CC2)C1=O)Nc1cn[nH]c(=O)c1C(F)(F)F [Example 54, 2-(4-((R)-3-((S)-3-methoxy-2-((6-oxo-5-(trifluoromethyl)-1,6-dihydropyridazin-4-yl)amino)propoxy)-2-oxopyrrolidin-1-yl)piperidin-1-yl)thiazole-5-carbonitrile]",> 7.00
6,"C[C@@H](CO[C@H]1C(=O)N(C2CCN(c3ncc(C(F)(F)F)cn3)CC2)C[C@@H]1C)Nc1cn[nH]c(=O)c1C(F)(F)F [Example 37B, 5-(((S)-1-(((3R,4S)-4-methyl-2-oxo-1-(1-(5-(trifluoromethyl)pyrimidin-2-yl)piperidin-4-yl)pyrrolidin-3-yl)oxy)propan-2-yl)amino)-4-(trifluoromethyl)pyridazin-3(2H)-one]",> 7.00
7,"C[C@@H](CO[C@@H]1CCN(C2CCN(c3ncc(Cl)cn3)CC2)C1=O)Nc1cn[nH]c(=O)c1C(F)(F)F [Example 16, 5-(((S)-1-(((R)-1-(1-(5-chloropyrimidin-2-yl)piperidin-4-yl)-2-oxopyrrolidin-3-yl)oxy)propan-2-yl)amino)-4-(trifluoromethyl)pyridazin-3(2H)-one]",> 7.00
8,"COC[C@@H](CO[C@@H]1CCN(C2CCN(c3ccc(C#N)cn3)CC2)C1=O)Oc1cn[nH]c(=O)c1C(F)(F)F [Example 50B, 6-(4-((R)-3-((S)-3-methoxy-2-((6-oxo-5-(trifluoromethyl)-1,6-dihydropyridazin-4-yl)oxy)propoxy)-2-oxopyrrolidin-1-yl)piperidin-1-yl)nicotinonitrile]",> 7.00
9,"C[C@H](CN[C@@H]1CCN(C2CCN(c3ncc(C(F)(F)F)cn3)CC2)C1=O)Nc1cn[nH]c(=O)c1C(F)(F)F (single isomer, unassigned) [Example 26D]",6.00 to 7.00
10,"C[C@@H](CO[C@H]1CCN(C2CCN(c3ncc(C(F)(F)F)cn3)CC2)C1=O)Nc1cn[nH]c(=O)c1C(F)(F)F [Example 10A, 5-((S)-1-((S)-1-(1-(5-(trifluoromethyl)pyrimidin-2-yl)piperidin-4-yl)-2-oxopyrrolidin-3-yloxy)propan-2-ylamino)-4-(trifluoromethyl)pyridazin-3(2H)-one]",6.00 to 7.00
11,"C[C@@H](COC1CCN(C2CCN(c3ncc(C(F)(F)F)cn3)CC2)C1=O)Nc1cn[nH]c(=O)c1Cl (stereo partly drawn) [Example 11, 4-chloro-5-((S)-1-(2-oxo-1-(1-(5-(trifluoromethyl)pyrimidin-2-yl)piperidin-4-yl)pyrrolidin-3-yloxy)propan-2-ylamino)pyridazin-3(2H)-one]",> 7.00
12,"O=C1[C@H](OC[C@H](CNCC(F)(F)F)Nc2cn[nH]c(=O)c2C(F)(F)F)CCN1C1CCN(c2ncc(C(F)(F)F)cn2)CC1 [Example 62, 5-(((S)-1-(((R)-2-oxo-1-(1-(5-(trifluoromethyl)pyrimidin-2-yl)piperidin-4-yl)pyrrolidin-3-yl)oxy)-3-((2,2,2-trifluoroethyl)amino)propan-2-yl)amino)-4-(trifluoromethyl)pyridazin-3(2H)-one]",> 7.00
13,"C[C@@H](COCC(=O)N[C@@H]1CCN(c2ncc(C(F)(F)F)cn2)C[C@H]1O)Nc1cn[nH]c(=O)c1C(F)(F)F (single isomer, unassigned) [Example 33A]",> 7.00
14,"COC[C@@H](CO[C@H]1CCN(C2CCN(c3ncc(C)cn3)CC2)C1=O)Oc1cn[nH]c(=O)c1C(F)(F)F [Example 52A, 5-(((S)-1-methoxy-3-(((S)-1-(1-(5-methylpyrimidin-2-yl)piperidin-4-yl)-2-oxopyrrolidin-3-yl)oxy)propan-2-yl)oxy)-4-(trifluoromethyl)pyridazin-3(2H)-one]",6.00 to 7.00
15,"Cc1cnc(N2CCC(N3CC[C@H](OC[C@H](C)Oc4cn[nH]c(=O)c4C(F)(F)F)C3=O)CC2)nc1 [Example 49A, 5-(((S)-1-(((S)-1-(1-(5-methylpyrimidin-2-yl)piperidin-4-yl)-2-oxopyrrolidin-3-yl)oxy)propan-2-yl)oxy)-4-(trifluoromethyl)pyridazin-3(2H)-one]",6.00 to 7.00
16,"C[C@@H](COC1CCN(C2CCN(c3ncc(C(F)(F)F)cn3)CC2)C1)Nc1cn[nH]c(=O)c1C(F)(F)F (stereo partly drawn) [Example 21, 4-(trifluoromethyl)-5-(((2S)-1-((1-(1-(5-(trifluoromethyl)pyrimidin-2-yl)piperidin-4-yl)pyrrolidin-3-yl)oxy)propan-2-yl)amino)pyridazin-3(2H)-one]",6.00 to 7.00
